Test results reported in patent publication US20040147554A1, “Crystalline form of (3R,4R)-4-[3-(S)-hydroxy-3-(6-methoxy-quinolin-4-yl)propyl]-1-[2-2thienylthio)ethyl] piperidine-3-carboxylic acid” (Aventis Pharms S.A., priority 2002, published 2004).

Assays:
Type in all cases: physicochemical
[1] = Loss in mass on heating below 50% humidity (dehydration); settings: between 25° C. and 75° C., 1 mole of water/mole of the acid, dehydration to form B
Experimental: Below 50% humidity, a loss in mass of 3.7% by weight is recorded between 25° C. and 75° C. (1 mole of water/mole of the acid). This loss in mass corresponds to the dehydration of the form C to give another form of (3R,4R)-4-[3-(S)-hydroxy-3-(6-methoxyquinolin-4-yl)propyl]-1-[2-(2-thienylthio)ethyl]piperidine-3-carboxylic acid, hereinafter known as form B.

[2] = Stability of the crystalline form versus humidity (powder X-ray diffraction)
Experimental: The analyses are carried out on a Bruker D8 diffractometer having a copper-anticathode tube equipped with a front monochromator (wavelength of the copper Kα1 line: 1.54060 Å). The arrangement is of Bragg-Brentano type, with a point scintillation detector. The angular range swept extends from 2 to 40 degrees 2θ with a step of 0.02 degrees 2θ. The counting time is 120 seconds per step.
Form C of (3R,4R)-4-[3-(S)-hydroxy-3-(6-methoxyquinolin-4-yl)propyl]-1-[2-(2-thienylthio)ethyl]piperidine-3-carboxylic acid is a monohydrate form. It is stable at 25° C. and at the degree of ambient humidity. It is particularly stable between 50% and 100% humidity.

[3] = Stability of the crystalline form in alcohol/water mixtures; settings: methanol/water or ethanol/water (1/1 by volume), after 30 days
Experimental: by stirring a suspension of form A at a temperature of 20° C.-25° C., in tetrahydrofuran/demineralized water (50/50 by volume), methyl ethyl ketone/demineralized water (80/20 by volume to 20/80 by volume), acetonitrile/demineralized water (50/50 by volume to 20/80 by volume) or ethanol or methanol/demineralized water (50/50 by volume) mixtures, for 5 days to about 30 days.

SMILES | loss in mass [1] | stability of the crystalline form ([2]; 25° C., ambient humidity) | stability by powder X-ray diffraction ([2]; 97% humidity, 20° C., after 11 weeks) | stability of the crystalline form in solvent mixture [3] | humidity up to which the form is stable ([2]; humidity)
COc1ccc2nccc([C@@H](O)CC[C@@H]3CCN(CCSc4cccs4)C[C@@H]3C(=O)O)c2c1 [Form C, (3R,4R)-4-[3-(S)-hydroxy-3-(6-methoxyquinolin-4-yl)propyl]-1-[2-(2-thienylthio)ethyl]piperidine-3-carboxylic acid] | 3.7 % by weight | stable | stability in the monohydtrate form | stable | –
COc1ccc2nccc([C@@H](O)CC[C@@H]3CCN(CCSc4cccs4)C[C@@H]3C(=O)O)c2c1 [Form B, (3R,4R)-4-[3-(S)-hydroxy-3-(6-methoxyquinolin-4-yl)propyl]-1-[2-(2-thienylthio)ethyl]piperidine-3-carboxylic acid] | – | – | – | – | up to 30%
